Laboratory results published in patent US11760784B2, “Compositions comprising PEDF-derived short peptides and uses thereof” (BRIM Biotechnology, Inc., priority 2016, dated 2023).

What was measured:
MMP-9 mRNA = MMP-9 mRNA by quantitative real-time PCR in NaCl-treated corneal epithelial cells; type: cell-based, rabbit
Procedure: Therefore, we also examined the effects of PDSP on the MMP-9 mRNA expression and activity in NaCl-treated rabbit corneal epithelial cells. Briefly, rabbit corneal epithelial cells were treated as described above. […] Hyperosmotic stress induced a substantial (about 2-fold) increase in MMP-9 mRNA level (Negative control peptide, ConP, followed by NaCl treatment). […] The increases in MMP-9 mRNA levels substantially correlate with the expression of the MMP-9 protein as measured with SDS-gel and enzymatic activities, as shown in FIG. 7(B).
The total RNA was extracted from cells using TRIzol (Invitrogen) and treated with RNase free DNase I (Qiagen, Santa Clarita, CA) to remove genomic DNA and then purified with an RNA purification kit (Dynabeads; Invitrogen). Synthesis of cDNA was performed by Superscript III (Invitrogen). Quantitative real-time PCR was performed in a GeneAmp 7700 sequence detection system (Applied Biosystems, Foster City, CA). […] All determinations were measured in triplicate. The cycle threshold (Ct) values corresponded to the PCR cycle number at which fluorescence emission in real time reaches a threshold above the base-line emission were analyzed using GeneAmp 7700 SDS software. The Ct value of the PCR product of interest and a control mRNA (GAPDH) were then used to calculate relative quantities of mRNA between samples. […]

[1] = system: desiccating stress-induced dry eye; experiment: Corneal fluorescein staining in desiccating stress-induced dry eye (CEC) mice; type: in vivo, C57BL/6 mice
Procedure: In an animal model for dry eye diseases, mice were placed in a controlled environment chamber (CEC) to induce dry eyes as previously described (Barabino et al., 2005). Mice placed in the CEC were exposed to a relative humidity (RH)<25%, temperature of 20 to 22° C., with an airflow of 15 L/min, 12 hours per day. Non-Stressed mice were kept in a normal environment (RH >50%, no air flow, temperature of 21-23° C.) for the same duration. After 14 days, non-stressed mice were treated with vehicle, while the stressed mice were treated with either a test peptide (e.g., the 29mer PDSP) or vehicle solution (Vehicle group) for 5 days. Then, the cornea was examined with fluorescein staining.
Seven to 8-week-old female C57BL/6 mice were used for these experiments. Experimental procedures were approved by the Mackay Memorial Hospital Review Board and conducted according to the ARVO Statement for the Use of Animals in Ophthalmic and Vision Research.
Dry eye was induced by placing mice in a controlled environment chamber (CEC) as previously described (Barabino et al., 2005). Briefly, mice placed in the CEC were exposed to a relative humidity (RH)<25%, temperature of 20 to 22° C., and airflow of 15 L/min, 12 hours per day. Non-stressed (NS) mice without stress-induced dry eye were kept in a normal environment (RH >50%, no air flow, temperature of 21-23° C.) for the same duration. Corneal fluorescein staining and
Animals were anesthetized by an intraperitoneal injection of a mixture of zoletil (6 mg/kg) and xylazine (3 mg/kg). Corneal epithelial injury was determined by staining with topical fluorescein (Fluor-I-Strip, Ayerst Laboratories, Philadelphia, Pa.). Corneal fluorescein staining was examined with a slit-lamp biomicroscope under cobalt blue light and photographed with a digital camera. Dye staining of the cornea was scored in a manner as follows: score 0 for no punctuate staining; score 1 when less than one third of the cornea was stained; score 2 when two thirds or less was stained; and score 3 when more than two thirds was stained (Horwath-Winter J 2013).
To determine whether PDSP have therapeutic effects in a desiccating stress (DS)-induced ocular surface defects, mice were housed at controlled environment chamber (CEC) for 14 days to create ocular surface disruption. After 14 days in CEC, we used mice with fluorescence scores that are above 2 for the first experiments (FIG. 1A). Subsequently, dry eyes were treated topically with PDSP at 25-200 μM (3 times/day) or PDSP vehicle (1% CMC in BSS) for another 5 days while maintaining the same desiccating stress protocol.
To investigate whether the PDSP can suppress DS-induced corneal epithelial disruption, we applied the 14-day desiccating stress protocol to mice, and treated these mice topically with PDSP 3 times a day.

PDSP: 29mer, residues 93-121 of human PEDF: SLGAEQRTESIIHRALYYDLISSPDIHGT (SEQ ID NO:4) (listed as Homo sapiens)
MMP-9 mRNA levels without hyperosmotic stress (peptide alone) (MMP-9 mRNA; PDSP alone, isotonic medium): did not have effect | repression of MMP-9 mRNA expression (MMP-9 mRNA; PDSP pretreatment 20 hours, then hyperosmotic medium (463 mOsM) 24 hours): 2 fold | corneal fluorescein staining score (0 to 3) ([1]; preventive: 100 μM PDSP topically 3 times a day from beginning of 14 days in CEC, vehicle 1.7±0.3): 0.7±0.2 | corneal surface damage by fluorescein staining ([1]; therapeutic: CEC 14 days to induce dry eye, then peptide on the eyes for 5 days): essentially gone
